This is an account of results in PMC3944524, “Antimicrobial Activity of the Marine Alkaloids, Clathrodin and Oroidin, and Their Synthetic Analogues” (Marine Drugs, 2014).

≈ marks a conversion by molar mass, not a printed value. Some results are limits rather than exact numbers.

Data set [1] has as its system Enterococcus faecalis (ATCC 29212). The data set can be described thus: Broth microdilution antimicrobial assay, Enterococcus faecalis. The format is cell-based. The note with it: for inhibition at 50 µM / inhibition of growth, primary screen: n = 3, hit threshold >80%, 50 µM; for inhibition at 50 µM: read-out: inhibition of growth, primary screen. The protocol:
(§1) Clinical control strains of Enterococcus faecalis (Gram-positive, ATCC 29212), Staphylococcus aureus (Gram-positive, ATCC 25923), Escherichia coli (Gram-negative, ATCC 25922) and a fungal strain, Candida albicans (ATCC 90028), were obtained from Microbiologics Inc. (St. Cloud, MN, USA) and used for the antimicrobial screening. Bacterial strains were grown on Mueller Hinton II agar (MHA, Becton Dickinson, Franklin Lakes, NJ, USA) […] Mueller Hinton II broth (MHB, Becton Dickinson, Franklin Lakes, NJ, USA) and the Candida strain on Sabouraud dextrose agar (SDA, Becton Dickinson, Franklin Lakes, NJ, USA) plates. Media were prepared in MilliQ water, according to the manufacturer's instructions, and autoclaved at 121 °C for 15 min. […] The Candida strain was grown on SDA plates at 28 °C for 18-24 h and suspended into sterile 0.9% saline for the assay. Antimicrobial assays were performed by the broth microdilution method following the guidelines of the Clinical and Laboratory Standards Institute (CLSI) and European Committee on Antimicrobial Susceptibility Testing (EUCAST). […] The Candida suspension was prepared in sterile 0.9% saline solution, and the suspension was diluted in RPMI-1640 media (with L-glutamine, without NaHCO3 and supplemented with 2% glucose and 0.165 M MOPS, buffered to pH 7; Lonza, Basel, Switzerland) to yield a final inoculum of 2.5 × 10^3 CFU/mL in the assay. Assays were carried out in clear 96-well microtiter plates and initiated by dispensing an equal volume of microbial suspension and sample solution diluted into the assay medium. The plates were incubated for 24 h at 37 °C (for Candida, the incubation was at 28 °C for 48 h) with agitation. […] The antimicrobial activity of the samples was calculated from the absorbance values by comparing to untreated controls and expressed as the percentage inhibition of growth. Reference antibiotics were used as positive controls on every assay plate (see Figure 2 for details). […] MIC50 values were determined from the dose-response results by sigmoidal curve fitting with Origin software (OriginLab, Corp., Wellesley Hills, MA, USA).
Background: Broth dilution looks for growth in wells or tubes with falling amounts of substance.

Data set [2] deals with Staphylococcus aureus (ATCC 25923). Briefly: Broth microdilution antimicrobial assay, Staphylococcus aureus. In kind it is cell-based. The note with it: for inhibition at 50 µM / MIC90 / MIC50: Staphylococcus aureus; for inhibition at 50 µM / inhibition of growth, primary screen: n = 3, hit threshold >80%, 50 µM; for inhibition at 50 µM: read-out: inhibition of growth, primary screen; for SI (selectivity index): S. aureus MIC50 vs Huh-7 cytotoxicity IC50; for MIC50: sigmoidal curve fitting. The protocol: as §1

Data set [3] relates to Escherichia coli (ATCC 25922). Briefly: Broth microdilution antimicrobial assay, Escherichia coli. The format is cell-based. On the procedure: as §1
Data set [4] deals with Candida albicans (ATCC 90028). Briefly: Broth microdilution antifungal assay, Candida albicans. The format is cell-based. The protocol: Clinical control strains of Enterococcus faecalis (Gram-positive, ATCC 29212), Staphylococcus aureus (Gram-positive, ATCC 25923), Escherichia coli (Gram-negative, ATCC 25922) and a fungal strain, Candida albicans (ATCC 90028), were obtained from Microbiologics Inc. (St. Cloud, MN, USA) and used for the antimicrobial screening. Bacterial strains were grown on Mueller Hinton II agar (MHA, Becton Dickinson, Franklin Lakes, NJ, USA) slants and Mueller Hinton II broth (MHB, Becton Dickinson, Franklin Lakes, NJ, USA) and the Candida strain on Sabouraud dextrose agar (SDA, Becton Dickinson, Franklin Lakes, NJ, USA) plates. Media were prepared in MilliQ water, according to the manufacturer’s instructions, and autoclaved at 121 °C for 15 min. Prior to the assay, bacterial suspensions were prepared in MHB from fresh slant cultures and incubated at 37 °C for 16–20 h at 100 rpm. The Candida strain was grown on SDA plates at 28 °C for 18–24 h and suspended into sterile 0.9% saline for the assay.
Antimicrobial assays were performed by the broth microdilution method following the guidelines of the Clinical and Laboratory Standards Institute (CLSI) and European Committee on Antimicrobial Susceptibility Testing (EUCAST). Bacterial suspensions were prepared as described above and diluted with MHB to obtain a final inoculum of 5 × 10^5 colony-forming units (CFU)/milliliters in the assay (determined on the basis of absorbance values at 620 nm previously calibrated against plate counts). The Candida suspension was prepared in sterile 0.9% saline solution, and the suspension was diluted in RPMI-1640 media (with L-glutamine, without NaHCO3 and supplemented with 2% glucose and 0.165 M MOPS, buffered to pH 7; Lonza, Basel, Switzerland) to yield a final inoculum of 2.5 × 10^3 CFU/mL in the assay. Assays were carried out in clear 96-well microtiter plates and initiated by dispensing an equal volume of microbial suspension and sample solution diluted into the assay medium. The plates were incubated for 24 h at 37 °C (for Candida, the incubation was at 28 °C for 48 h) with agitation. Absorbance was measured at 620 nm with a plate reader at 0, 4 and 24 h with the bacteria and at 0, 24 and 48 h with Candida. The antimicrobial activity of the samples was calculated from the absorbance values by comparing to untreated controls and expressed as the percentage inhibition of growth. Reference antibiotics were used as positive controls on every assay plate (see Figure 2 for details). […] MIC50 values were determined from the dose-response results by sigmoidal curve fitting with Origin software (OriginLab, Corp., Wellesley Hills, MA, USA).

Data set [5] can be described thus: Mammalian cell cytotoxicity, ATP assay (CellTiter-Glo). In kind it is cell-based, human. The note with it: human, Huh-7 cells, ATP assay, 24 h exposure, average of two dose-response experiments. On the procedure: (§2) Huh-7 cells (originating from human hepatocellular carcinoma) were kindly provided by Prof. Ralf Bartenschlager (University of Heidelberg, Heidelberg, Germany). […] The cells were incubated at 37 °C in a humidified atmosphere with 5% CO2. The effect of the most promising compounds on the metabolic activity of Huh-7 hepatocytes was assessed by intracellular ATP quantitation (Promega’s CellTiter-Glo Cell Viability Assay, Madison, WI, USA). In brief, cells were seeded at 20,000 cells/well on white-walled 96-well microplates (ViewPlate, PerkinElmer Inc., Wellesley, MA, USA) and incubated at 37 °C, 5% CO2 and 95% humidity overnight and then exposed to the compounds for 24 h. Following the exposure, cells were washed with 100 µL PBS, and 50 µL of fresh assay media and 50 µL of the CellTiter-Glo reagent were added into the wells. After 2 min of shaking and 10 min incubation at rt, luminometric signal was measured using a Varioskan Flash plate reader (Thermo Fisher Scientific, Vantaa, Finland). […] The IC50 values were calculated by fitting the data into sigmoidal dose-response curves with the Origin software.
In general terms: ATP-based viability assays read luminescence as a measure of living cells.

Data set [6] relates to Huh-7 cells. Briefly: Mammalian cell cytotoxicity, ATP assay (CellTiter-Glo). The format is cell-based, human. The protocol:
as §2

Where [7] appears, read: Enterococcus faecalis, ATCC29212, 24 h.
The mark [8] stands for this setting: ATCC25923, S. aureus ATCC 25923, 24 h.
The mark [9] stands for this setting: 50 µM, 24 h, n = 3, hit threshold >80%.
Where [10] appears, read: 50 µM, 48 h, n = 3, hit threshold >80%.

As a reminder, the inhibition is the drop in the measured response relative to a control, in per cent. On to `Nc1nc(/C=C/CNC(=O)c2ccc[nH]2)c[nH]1` [Compound 2a, (E)-N-(3-(2-amino-1H-imidazol-4-yl)allyl)-1H-pyrrole-2-carboxamide], for which the inhibition at 50 µM in data set [1] (setting [7]) was less than 80%; in data set [2] (ATCC25923, 24 h), less than 80%; in data set [3] (Escherichia coli, ATCC25922, 50 µM, 24 h, n = 3, hit threshold >80%, read-out: inhibition of growth, primary screen), less than 80%; in data set [4] (Candida albicans, ATCC90028, 50 µM, 48 h, n = 3, hit threshold >80%, read-out: inhibition of growth, primary screen), less than 80%.

The term MIC90 denotes the lowest concentration that inhibits either 90% of growth or 90% of the strains tested, depending on the study. Usually MIC50 stands for an inhibitory concentration at the 50% level, which refers to growth in some studies and to a panel of isolates in others. A high value points to lower susceptibility. For orientation: IC50 means the midpoint of a concentration-inhibition curve. Low readings indicate greater potency, high ones weaker potency. As a reminder, the melting point is the temperature of the solid-liquid transition. As for `Cl.Nc1nc(-c2cccc(NC(=O)c3cc4cc(OCc5ccccc5)ccc4[nH]3)c2)c[nH]1` [Compound 6h, 2-Amino-4-(3-(5-(benzyloxy)-1H-indole-2-carboxamido)phenyl)-1H-imidazol-3-ium chloride], the melting point was in the range of 175 to 178 °C. Moreover, the “inhibition of growth, primary screen” value in data set [1] (24 h) is given as “active”. In addition, the “SI (selectivity index)” value in data set [1] (E. faecalis MIC50 vs Huh-7 cytotoxicity IC50) was 2.7. Also, the MIC90 in data set [1] (setting [7]) amounted to 12.5 µM. This molecule also came in with an MIC90 in data set [1] (Enterococcus faecalis, ATCC29212, E. faecalis ATCC 29212, 24 h) of 5.7 µg/mL. Also, in data set [1] (Enterococcus faecalis, ATCC29212, E. faecalis ATCC 29212, 24 h, sigmoidal curve fitting), the MIC50 was found to be 8 µM. Further, the “inhibition of growth, primary screen” value in data set [2] (24 h) is listed as “active”. Besides, the “SI (selectivity index)” value in data set [2] is on record as 2.9. Moreover, the MIC90 in data set [2] (ATCC25923, 24 h) was determined as 12.5 µM. In data set [2] (setting [8]), this molecule yielded an MIC90 of 5.7 µg/mL and an MIC50 of 7.3 µM. Further, the “inhibition of growth, primary screen” value in data set [3] (setting [9]) is on record as “active”. Besides, the “SI (selectivity index)” value in data set [3] (E. coli MIC50 vs Huh-7 cytotoxicity IC50) came to 0.7. The molecule further gave an MIC90 in data set [3] (Escherichia coli, ATCC25922, 24 h) of 50 µM. In data set [3] (Escherichia coli, ATCC25922, E. coli ATCC 25922, 24 h, sigmoidal curve fitting), this molecule showed an MIC50 of 30.4 µM. For the same molecule, the “inhibition of growth, primary screen” value in data set [4] (setting [10]) is recorded as “no activity”. Also, in data set [5], the half-maximal inhibitory concentration (IC50) at 24 h came out at 21.2 µM.

Take `Nc1nc(-c2cccc(NC(=O)c3c[nH]c4ccccc34)c2)c[nH]1` [Compound 6e]: the “inhibition of growth, primary screen” value in data set [1] (24 h), in data set [2] (24 h), in data set [3] (setting [9]) and in data set [4] (setting [10]) was “inactive” each time.

In data set [6] (15,000 IU/mL, positive control, 24 h), “Polymyxin-B sulfate [reference compound]” yielded an average cytotoxicity of 88%.

As to `Nc1nc(/C=C/CNC(=O)c2cc(Br)c(Br)[nH]2)c[nH]1` [Compound 2b, (E)-N-(3-(2-amino-1H-imidazol-4-yl)allyl)-4,5-dibromo-1H-pyrrole-2-carboxamide], the inhibition at 50 µM is roughly 50% in data set [1] (setting [7]) and greater than 90% in data set [2] (ATCC25923, 24 h). The “SI (selectivity index)” value in data set [2] is greater than 3.3. Also, in data set [2] (ATCC25923, 24 h), the MIC90 was 100 µM. In data set [2] (setting [8]), this molecule gave an MIC50 of 30.6 µM (≈ 11.9 µg/mL). For the same molecule, the “inhibition of growth, primary screen” value in data set [3] (setting [9]) and in data set [4] (setting [10]) was “inactive” in each case. The molecule also gave a 50% inhibitory concentration (IC50) at 24 h in data set [5] greater than 100 µM.

As to `CC(C)(C)OC(=O)n1cc(-c2cccc(NC(=O)c3cc4cc(Cl)ccc4[nH]3)c2)nc1N` [Compound 5i, tert-Butyl 2-amino-4-(3-(5-chloro-1H-indole-2-carboxamido)phenyl)-1H-imidazole-1-carboxylate], the melting point is 188 to 190 °C. Also, in data set [2], the “SI (selectivity index)” value is on record as greater than 8.6. This molecule also displayed an MIC90 in data set [2] (ATCC25923, 24 h) of 75 µM. In data set [2] (setting [8]), the MIC50 stood at 11.7 µM (≈ 5.29 µg/mL). Also, the half-maximal inhibitory concentration (IC50) at 24 h in data set [5] is greater than 100 µM. Besides, the “cytotoxicity at highest tested concentration” value in data set [6] (100 µM) is “non-cytotoxicity”.

Regarding `C[C@@H]1[C@H](O)[C@@H](C)/C=C/C=C/C=C/C=C/C=C/C=C/C=C/[C@H](O[C@@H]2O[C@H](C)[C@@H](O)[C@H](N)[C@@H]2O)C[C@@H]2O[C@](O)(C[C@@H](O)C[C@@H](O)[C@H](O)CC[C@@H](O)C[C@@H](O)CC(=O)O[C@H]1C)C[C@H](O)[C@H]2C(=O)O` [amphotericin B, reference compound], the MIC90 in data set [4] (Candida albicans, ATCC90028, 48 h) was determined as 0.5 µM; in data set [4] (Candida albicans, ATCC90028, C. albicans ATCC 90028, 48 h), 0.5 µg/mL.
